# How the values were obtained:
# [1] = test system: small intestinal organoids; assay: Screening of compound library using organoid proliferation measurement; format: cell-based, mouse; details: 50 μM in EN culture solution, 4 days
# Source text: Small intestinal crypts were isolated from a mouse to be used in experiments for preparing and culturing small intestinal organoids. Specifically, the small intestine was isolated after killing a 5-7 weeks old C57BL/6 mouse weighing 20-25 g by cervical vertebrae dislocation. The small intestine was cut longitudinally from a proximal end to a distal end, and also laterally cut into pieces of about 5 mm length. The piece of small intestine obtained was washed with ice-cooled Dulbecco's phosphate-buffered saline (DPBS) until the supernatant liquid was sufficiently clear. Then, the crypts were isolated by treating with a Gentle Cell Dissociation Reagent (StemCell Technologies, Cambridge, MA), and filtering with a cell strainer.
# Compounds which can replace R-spondin in organoid cultures were screened for 8,364 types of compounds included in a representative library of the Korea Chemical Bank.
# The small intestinal crypts derived from the small intestine of a 7-week-old C57BL/6 mouse isolated in Example 1 were mixed in Matrigel, and placed in each well of a 96-well plate. […]
# The number of living organoids, the number of budding organoids, and the circumference of each organoid were measured using the optical microscope photos. […] The compounds were ranked based on the measured values, and then 295 candidate compounds were selected to be used in a second screening. […]
# [2] = test system: small intestinal organoids; assay: Budding characteristics analysis (counts of budding and non-budding organoids); format: cell-based, mouse; details: 4 days
# Source text: The morphological characteristic of the small intestinal organoids is that they grow while budding. In order to check that the budding rate of the small intestinal organoids grown in the RS-246204-added culture solution (hereinafter, RS-246204 culture solution) is similar to that grown in ENR culture solution, the total number of organoids, the number of budding organoids, and the number of non-budding organoids were counted in the wells culturing for 4 days. The rate of budding organoids and non-budding organoids grown in the culture solution containing 50 μM of RS-246204 is about 1:1, which is similar to the rate of organoids grown in the ENR culture solution (see FIG. 2C).
# [3] = test system: small intestinal organoids; assay: Organoid circumference by date (growth efficiency); format: cell-based, mouse; details: RS-246204 culture solution vs ENR culture solution, photographed every day
# Method: In order to check whether the growth efficiency of the small intestinal organoids grown in the RS-246204 culture solution has a difference, the small intestinal organoids cultured in each culture solution were photographed by an optical microscope every day. The circumference of the individual organoid according to the condition of culture medium and date was measured, and converted into percentage.
# [4] = test system: small intestinal organoids; assay: Subculture of small intestinal organoids; format: cell-based, mouse; details: RS-246204 culture solution
# [5] = test system: small intestinal organoids; assay: RT-PCR and qRT-PCR analysis of lineage markers; format: cell-based, mouse
# Method: In order to confirm whether lineage markers specific to the small intestinal organoids are expressed when cultured with RS-246204, RNA analysis was performed. The small intestinal organoids cultured in ENR and RS-246204 culture solutions, respectively, for 4 days were collected. RNA was extracted and cDNA was synthesized, and then RT-PCR was performed. As a marker for intestinal stem cells, goblet cells, paneth cells, enteroendocrine cells and enterocyte, RT-PCR was performed using RNA primers for Lgr5, muc-1 and muc-2, defesing-5, chromogranin A (ChgA), and villin, respectively.
# For quantitative analysis, qRT-PCR analysis was performed. AccuPower 2X Greenstar qPCR MasterMix (Bioneer) and Thermal Cycler Dice® Real Time System III (Takara, Japan) were used, and the reaction was performed for 10 seconds at 95° C. (denaturation), 15 seconds at 57° C. (annealing), and 20 seconds at 72° C. (extension). The RNA primers excluded Muc1 among those used in the RT-PCR test, changed the enterocyte marker from villin to Intestinal Alkaline Phosphatase (IAP), and used the same sequence for the rest.
# [6] = test system: small intestinal organoids; assay: Immunofluorescence analysis; format: cell-based, mouse; details: organoids cultured in ENR and RS-246204 culture solutions
# [7] = test system: small intestinal organoids; assay: CFTR agonist Forskolin analysis (function maintenance); format: cell-based, mouse; details: 4 days culture, then forskolin 5 μM, 1 hour
# Method: In order to check whether functions of small intestinal epithelial cells are maintained in the small intestinal organoids cultured using the RS-246204 culture solution, CFTR agonist Forskolin analysis was performed. The forskolin is a compound which stimulates ion channels to open, thereby promoting the release of moisture. In case of small intestinal organoids, moisture gathers into the lumen by the forskolin stimulation and changes into a large spherical shape, thereby confirming the maintenance of the function of epithelial cells. After culturing for 4 days in RS-246204 culture solution and ENR culture solution, respectively, it was replaced with a culture solution to which forskolin was added at a concentration of 5 μM. Photographs were taken by an optical microscope at an interval of 10 minutes for 1 hour immediately after the replacement. Based on the optical micrographs, the free curve tool of Dixi eXcope (Korea) program was used to measure the circumference of each organoid per hour and analyze the change in circumference.
# [8] = test system: human large intestinal organoids; assay: Formation of large intestinal organoids (Example 6); format: cell-based; details: for organoid formation: 5 days
# Source text: (§1) Large intestinal tissue was isolated from a human patient during surgery and used in experiments for forming organoids. The tissue was cut longitudinally from a proximal end to a distal end, and also laterally cut into pieces of about 5 mm length. The tissue pieces, which were isolated crypts, were washed with ice-cooled Dulbecco's phosphate-buffered saline (DPBS) until the supernatant liquid was sufficiently clear. Then, the crypts were isolated by treating with a Gentle Cell Dissociation Reagent (StemCell Technologies, Cambridge, MA), and filtering with a cell strainer. The crypts were mixed in collagen gel, and placed in each well of a well plate with the composition comprising the compound of the chemical formula 1 (namely, RS-246204). After keeping in 37° C. humidification incubator (5% CO2) for 5 days, the formed organoids were observed, and optical microscope photos were taken for analysis.
# (§2) The control and experimental groups were classified as follows depending on the components of the medium composition used.
# • ENR group: Basal media supplemented with EGF (E), Noggin (N) and R-spondin (R) was used to form human large intestinal organoids. • EN+RS-246204 group: Basal media supplemented with EGF (E), Noggin (N) and RS-246204 (25 or 50 μM) was used to form human large intestinal organoids.
# • RS-246204 group: Basal media supplemented with RS-246204 (25 or 50 μM) was used to form human large intestinal organoids.
# Noggin, thiazovivin, CHIR99021, and a pharmaceutically acceptable salt of CHIR99021 was not used in both the control and experimental groups.
# [9] = test system: human large intestinal organoids; assay: Formation of large intestinal organoids, RS-246204 concentration series (Example 7); format: cell-based
# Source text: as §1, with “keeping in a 37° C.” for “keeping in 37° C.”, “were observed, optical microscope” for “were observed, and optical microscope”, “taken for analysis, and organoid counts were analyzed using Leopard iX software.” for “taken for analysis.”
# as §2
# • RS 0 μM group: Basal media (Advanced DMEM/F12 media) not supplemented with RS-246204 (also referred to as “RS”) was used to form human large intestinal organoids. • RS 2.5 μM group: Basal media (Advanced DMEM/F12 media) supplemented with RS-246204 2.5 μM was used to form human large intestinal organoids.
# • RS 5 μM group: Basal media (Advanced DMEM/F12 media) supplemented with RS-246204 5[…] μM was used to form human large intestinal organoids. • RS 50 μM group: Basal media (Advanced DMEM/F12 media) supplemented with RS-246204 50 μM was used to form human large intestinal organoids. • RS 100 μM group: Basal media (Advanced DMEM/F12 media) supplemented with RS-246204 100 μM was used to form human large intestinal organoids.
# [10] = test system: large intestinal organoids; assay: Formation of organoids (Example 8), large intestinal; format: cell-based, human
# Source text: (§3) Large intestinal tissue, adenoid tissue, and pancreatic cancer tissue were isolated from a patient during surgery and used in experiments for preparing and culturing organoids. Salivary tissue was isolated from a mouse and used in experiments for preparing and culturing organoids.
# (§4) Each of the tissues was cut longitudinally from a proximal end to a distal end, and also laterally cut into pieces of about 5 mm length. The piece of the tissues obtained was washed with ice-cooled Dulbecco's phosphate-buffered saline (DPBS) until the supernatant liquid was sufficiently clear. Then, the tissues were isolated by treating with a Gentle Cell Dissociation Reagent (StemCell Technologies, Cambridge, MA), and filtering with a cell strainer. The isolated tissues were mixed in collagen gel, and placed in each well of a well plate. After keeping in 37° C. humidification incubator (5% CO2), the cultured organoids were observed, and optical microscope photos were taken for analysis.
# salivary organoids = assay: Formation of organoids (Example 8), salivary; format: cell-based, mouse
# Source text: as §3, §4
# adenoid organoids = assay: Formation of organoids (Example 8), adenoid; format: cell-based, human; details: 1 μM
# Source text: as §3, §4
# [11] = test system: pancreatic cancer organoids; assay: Formation of organoids (Example 8), pancreatic cancer; format: cell-based, human
# Source text: as §3, §4
smiles,measurement,setting,value
Cn1c(Sc2ccc3ccccc3n2)nc2c1c(=O)[nH]c(=O)n2C [RS-246204],growth of small intestinal organoids,[1]; among the final seven candidate compounds,highest growth of small intestinal organoids among the candidate materials
same,growth and maintenance of organoids compared with R-spondin,[1]; numerical data and visual confirmation,could grow and maintain organoids most similar to R-spondin
same,killing of organoids,[2]; concentration higher than 50 μM,most organoids were killed
same,rate of non-budding organoids,[2]; concentration lower than 50 μM,increased
same,growth efficiency and increase rate of the circumference according to date,[3],similarly observed
same,growth and maintenance after the subculture,[4],growth and maintenance were also possible even after the subculture
same,possibility to subculture,[4]; same manner as ENR culture solution,possible to subculture
same,"presence of intestinal stem cells, goblet cells, paneth cells, enteroendocrine cells and enterocyte (RT-PCR markers)","[5]; 4 days culture, Lgr5, muc-1, muc-2, defesing-5, ChgA, villin",all these cells were present
same,relative amount of markers expressed (qRT-PCR),[5]; ENR vs RS-246204 culture solutions,little difference between the ENR and RS-246204 culture solutions
same,"expression of Muc-2, lysozyme and Ki67 (immunofluorescence staining)",[6],"confirm the expression of Muc-2, lysozyme, and Ki67"
same,function of epithelial cells after forskolin stimulation,[7],performed well as epithelial cells
same,organoid formation,"[8]; EN+RS-246204 group: basal media with EGF, Noggin and RS-246204 (25 or 50 μM)",human intestinal organoids were formed
same,quantity of organoid calculated from the confluency,[8]; RS-246204 group (25 or 50 μM) compared with ENR or EN+RS-246204 groups,no significant difference
same,organoid formation,[8]; RS-246204 group: basal media supplemented with RS-246204 only (25 or 50 μM),human intestinal organoids were formed
same,quantity of organoid calculated from the confluency,[9]; RS 2.5 μM compared with RS 0 μM group,no significant difference
same,organoid formation,"[9]; RS 2.5 μM in Advanced DMEM/F12, 5 days",human intestinal organoids were formed
same,organoid formation,"[9]; RS-246204 5, 50 or 100 μM in Advanced DMEM/F12, 5 days",human intestinal organoids were formed
same,budding (crypt) formation,[10],grow while forming budding (crypt)
same,growth after subculturing,[10],can grow even after subculturing
same,formation and proliferation effects,[10]; 20 μM RS-246204,excellent formation and proliferation effects
same,growth after subculturing,salivary organoids,can grow even after subculturing
same,dose dependence of formation and proliferation,"salivary organoids; 1.25 μM, 2.5 μM or 5 μM",form and proliferate in a dose-dependent manner
same,formation and proliferation effects,"salivary organoids; 1.25 μM, 2.5 μM or 5 μM RS-246204",excellent formation and proliferation effects
same,dose dependence of formation and proliferation,adenoid organoids; 2 μM or 5 μM,form and proliferate in a dose-dependent manner
same,formation and proliferation effects,adenoid organoids; 2 μM or 5 μM RS-246204,excellent formation and proliferation effects
same,growth after subculturing,[11],can grow even after subculturing
same,formation and proliferation effects,[11]; 30 μM RS-246204,excellent formation and proliferation effects

# Reference: US20250388867A1, “COMPOSITION AND METHOD FOR CULTURING ORGANOIDS” (ORGANOIDSCIENCES, LTD., priority 2017, published 2025)
